Where “and” joins values, the source holds several entries; their conditions need not be identical. Identical values can stand only once. Counter-ions that a name gives are not always drawn.
What was measured:
complement system = settings: reported in literature; cited from earlier work
[1] = reported in literature; cited from earlier work
activated human C1 = biological target: T1, activated human C1 (Homo sapiens, UniProt P09871); assay: Test, Code 026 (C1 inhibitor); format: biochemical; settings: higher well number indicates higher activity, serial dilutions two-fold
T1 sequence (P09871 16-437 limits assumed): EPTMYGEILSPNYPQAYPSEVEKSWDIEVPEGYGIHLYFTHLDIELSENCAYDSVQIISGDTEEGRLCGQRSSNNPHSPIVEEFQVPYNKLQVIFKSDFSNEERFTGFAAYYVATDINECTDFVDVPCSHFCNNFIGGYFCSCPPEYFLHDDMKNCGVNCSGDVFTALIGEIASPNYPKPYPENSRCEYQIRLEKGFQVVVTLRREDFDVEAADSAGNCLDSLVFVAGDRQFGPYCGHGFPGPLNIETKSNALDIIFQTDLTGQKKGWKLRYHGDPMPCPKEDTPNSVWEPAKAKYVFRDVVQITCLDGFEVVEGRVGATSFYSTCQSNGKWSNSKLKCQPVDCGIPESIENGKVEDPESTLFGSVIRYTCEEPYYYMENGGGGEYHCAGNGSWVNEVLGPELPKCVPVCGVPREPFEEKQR
T1 sequence (P09871 438-688 limits assumed): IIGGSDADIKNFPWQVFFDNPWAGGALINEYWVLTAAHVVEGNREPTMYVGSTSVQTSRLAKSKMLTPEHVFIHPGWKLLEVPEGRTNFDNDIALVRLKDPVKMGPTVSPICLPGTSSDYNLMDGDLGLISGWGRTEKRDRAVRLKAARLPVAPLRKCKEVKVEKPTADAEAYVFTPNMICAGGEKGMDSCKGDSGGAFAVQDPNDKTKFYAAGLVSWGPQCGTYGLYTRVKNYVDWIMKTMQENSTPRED
Excerpt: (§1) This test measures the ability of activated human C1 to destroy fluid phase human C2 in the presence of C4 and appropriate dilutions of the test compound. An active inhibitor protects C2 from C1 and C4; (ii) Test, Code 035 (C3-C9 inhibitor) -- This test determines the ability of the late components of human complement (C3-C9) to lyse EAC 142 in the presence of appropriate dilutions of the test compound. An active inhibitor protects EAC 142 from lysis by human C3-C9; (iii) Test, Code 036 (C-Shunt inhibitor)-In this test human erythrocytes rendered fragile are lysed in autologous serum via the shunt pathway activated by cobra venom factor in the presence of appropriate dilutions of the test compound. Inhibition of the shunt pathway results in failure of lysis; (iv) Forssman Vasculitis Test -- Here, the well known complement dependent lesion, Forssman vasculitis, is produced in guinea pigs by intradermal injection of rabbit anti-Forssman antiserum. The lesion is measured in terms of diameter, edema and hemorrhage and the extent to which a combined index of these is inhibited by prior intraperitoneal injection of the test compound at 200 mg/kg is then reported, unless otherwise stated; (v) Forssman Shock Test -- Lethal shock is produced in guinea pigs by an i.v. injection of anti-Forssman antiserum and the harmonic mean death time of treated guinea pigs is compared with that of simultaneous controls; (vi) Complement Level Reduction Test -- In this test, the above dosed guinea pigs, or others, are bled for serum and the complement level is determined in undiluted serum by the capillary tube method of U.S. Pat. No. 3,876,376 and compared to undosed control guinea pigs; and (vii) Cap 50 Test -- Here, appropriate amounts of the test compound are added to a pool of guinea pig serum in vitro, after which the undiluted serum capillary tube assay referred to above is run. The concentration of compound inhibiting 50% is reported.

[2] = test system: shunt pathway activated by cobra venom factor; format: cell-based, human; settings: higher well number indicates higher activity; serial dilutions two-fold
Excerpt: as §1

[3] = test system: late components of human complement (C3-C9); assay: Test, Code 035 (C3-C9 inhibitor), lysis of EAC 142; format: biochemical; settings: higher well number indicates higher activity; serial dilutions two-fold
Excerpt: as §1

[4] = test system: lethal shock by i.v. anti-Forssman antiserum; assay: Forssman Shock Test; format: in vivo; settings: guinea pig, at 200 mg/kg; Control=3.15 min
Protocol: as §1, with “An active inhibitor protects EAC 142 from lysis by human C3-C9; (iii) Test, Code 036 (C-Shunt inhibitor)-In this test human erythrocytes rendered fragile are lysed in autologous serum via the shunt pathway activated by cobra venom factor in the presence of appropriate dilutions of the test compound. Inhibition of the shunt pathway results in failure of lysis; (iv) Forssman Vasculitis Test -- Here, the well known complement dependent lesion, Forssman vasculitis, is produced in guinea pigs by intradermal injection of rabbit anti-Forssman antiserum.” left out, “The concentration of compound inhibiting 50% is reported.” left out

whole complement = assay: Complement Level Reduction Test (serum of dosed guinea pigs, capillary tube assay); format: in vivo, guinea pig

Compound: Nc1ccc2cc(S(=O)(=O)O)cc(O)c2c1N=Nc1ccc(NC(=O)Nc2ccc(N=Nc3c(N)ccc4cc(S(=O)(=O)O)cc(O)c34)c(S(=O)(=O)O)c2)cc1S(=O)(=O)O [chlorazol fast pink, 3,3'-ureylenebis-[6-(2-amino-8-hydroxy-6-sulfo-1-naphthylazo)]benzenesulfonic acid tetrasodium salt]
- anticomplementary effect (complement system): anticomplementary effect

Compound: NCCCCCC(=O)O [epsilon-aminocaproic acid]
- treatment of hereditary angioneurotic edema [1]: used with success

Compound: NC[C@H]1CC[C@H](C(=O)O)CC1 [tranexamic acid]
- treatment of hereditary angioneurotic edema [1]: used with success

Compound: heparin
- anticomplementary effect (complement system): anticomplementary effect

Compound: α-Cyclodextrin polysulfate triethylammonium salt
- 026 (C1 inhibitor) activity, wells of a two-fold serial dilution assay (activated human C1): 11 wells
- 036 (C-Shunt inhibitor) activity, wells of a two-fold serial dilution assay [2]: 3 wells and 5 wells
- 035 (C3-C9 inhibitor) activity, wells of a two-fold serial dilution assay [3]: Neg

Compound: α-cyclodextrin polysulfate sodium salt
- Forsmann Shock, harmonic mean death time [4]: 31.1 min
- 026 (C1 inhibitor) activity, wells of a two-fold serial dilution assay (activated human C1): 14 wells
- In vivo Activity (Guinea Pig) % Inhibition (whole complement; 100 mg/kg i.v., time 2'): 75%
- In vivo Activity (Guinea Pig) % Inhibition (whole complement; 100 mg/kg i.v., time 30'): 56%
- In vivo Activity (Guinea Pig) % Inhibition (whole complement; 100 mg/kg i.v., time 120'): 39%
- In vivo Activity (Guinea Pig) % Inhibition (whole complement; 200 mg/kg i.p., time 30'): 71%
- In vivo Activity (Guinea Pig) % Inhibition (whole complement; 200 mg/kg i.p., time 60'): 28%
- In vivo Activity (Guinea Pig) % Inhibition (whole complement; 200 mg/kg i.p., time 120'): 72%
- 036 (C-Shunt inhibitor) activity, wells of a two-fold serial dilution assay [2]: 6 wells
- 035 (C3-C9 inhibitor) activity, wells of a two-fold serial dilution assay [3]: Neg

Compound: β-Cyclodextrin polysulfate potassium salt
- 026 (C1 inhibitor) activity, wells of a two-fold serial dilution assay (activated human C1): 10 wells
- 036 (C-Shunt inhibitor) activity, wells of a two-fold serial dilution assay [2]: 6 wells
- 035 (C3-C9 inhibitor) activity, wells of a two-fold serial dilution assay [3]: Neg

Compound: β-Cyclodextrin polysulfate sodium salt
- Forsmann Shock, harmonic mean death time [4]: > 90 min
- 026 (C1 inhibitor) activity, wells of a two-fold serial dilution assay (activated human C1; sodium salt): 12 wells and 11 wells and 10 wells
- In vivo Activity (Guinea Pig) % Inhibition (whole complement; 100 mg/kg i.v., time 2'): 75%
- In vivo Activity (Guinea Pig) % Inhibition (whole complement; 100 mg/kg i.v., time 30'): 45%
- In vivo Activity (Guinea Pig) % Inhibition (whole complement; 100 mg/kg i.v., time 120'): 27%
- In vivo Activity (Guinea Pig) % Inhibition (whole complement; 200 mg/kg i.p., time 30'): 49%
- In vivo Activity (Guinea Pig) % Inhibition (whole complement; 200 mg/kg i.p., time 60'): 29%
- In vivo Activity (Guinea Pig) % Inhibition (whole complement; 200 mg/kg i.p., time 120'): 67%

Compound: β-Cyclodextrin polysulfate triethylammonium salt
- 026 (C1 inhibitor) activity, wells of a two-fold serial dilution assay (activated human C1): 10 wells
- 036 (C-Shunt inhibitor) activity, wells of a two-fold serial dilution assay [2]: 4 wells and 6 wells
- 035 (C3-C9 inhibitor) activity, wells of a two-fold serial dilution assay [3]: Neg

— patent US4020160A, “Cyclodextrin sulfate salts as complement inhibitors” (American Cyanamid Company, priority 1975, dated 1977)
